In patent publication US8470820B2, “Nitrogen-containing heteroaryl derivatives” (Hoffman-La Roche Inc., priority 2010, dated 2013):

Biological target: human PDE10A (Homo sapiens (Human), UniProt Q9Y233)
Test: human PDE10A full length Scintillation Proximity Assay (SPA)
Assay type: biochemical
Conditions: 50 nM cGMP and 50 nM [3H]-cGMP, 20 minutes at room temperature, read-out: PDE10A inhibition IC50
Method: The following test was carried out in order to determine the activity of the compounds of the present invention. PDE10 activity of the compounds of the present invention was determined using a Scintillation Proximity Assay (SPA)-based method similar to the one previously described (Fawcett, L. et al., Proc Natl Acad Sci USA (2000) 97(7):3702-3707).
The human PDE10A full length assay was performed in 96-well micro titer plates. The reaction mixture of 50 μl contained 20 mM HEPES pH=7.5/10 mM MgCl2/0.05 mg/ml BSA (Sigma cat. # A-7906), 50 nM cGMP (Sigma, cat. # G6129) and 50 nM [^3H]-cGMP (GE Healthcare, cat. # TRK392 S.A. 13.2Ci/mmol), 3.75 ng/well PDE10A enzyme (Enzo Life Science, Lausen, Switzerland cat # SE-534) with or without a specific test compound. A range of concentrations of the potential inhibitor was used to generate data for calculating the concentration of inhibitor resulting in 50% of the effect (e.g. IC50, the concentration of the competitor inhibiting PDE10A activity by 50%). Non-specific activity was tested without the enzyme. The reaction was initiated by the addition of the substrate solution (cGMP and [^3H]-cGMP) and allowed to progress for 20 minutes at room temperature. The reaction was terminated by adding 25 μA of YSi-SPA scintillation beads (GE Healthcare, cat. # RPNQ0150) in 18 mM zinc sulphate solution (stop reagent). After 1 h under shaking, the plate was centrifuged one minute at 170 g to allow beads to settle. Afterwards, radioactive counts were measured on a Perkin Elmer TopCount Scintillation plate reader.

human PDE10A, sequence (Q9Y233 other isoform, or with tags, fused parts or gaps): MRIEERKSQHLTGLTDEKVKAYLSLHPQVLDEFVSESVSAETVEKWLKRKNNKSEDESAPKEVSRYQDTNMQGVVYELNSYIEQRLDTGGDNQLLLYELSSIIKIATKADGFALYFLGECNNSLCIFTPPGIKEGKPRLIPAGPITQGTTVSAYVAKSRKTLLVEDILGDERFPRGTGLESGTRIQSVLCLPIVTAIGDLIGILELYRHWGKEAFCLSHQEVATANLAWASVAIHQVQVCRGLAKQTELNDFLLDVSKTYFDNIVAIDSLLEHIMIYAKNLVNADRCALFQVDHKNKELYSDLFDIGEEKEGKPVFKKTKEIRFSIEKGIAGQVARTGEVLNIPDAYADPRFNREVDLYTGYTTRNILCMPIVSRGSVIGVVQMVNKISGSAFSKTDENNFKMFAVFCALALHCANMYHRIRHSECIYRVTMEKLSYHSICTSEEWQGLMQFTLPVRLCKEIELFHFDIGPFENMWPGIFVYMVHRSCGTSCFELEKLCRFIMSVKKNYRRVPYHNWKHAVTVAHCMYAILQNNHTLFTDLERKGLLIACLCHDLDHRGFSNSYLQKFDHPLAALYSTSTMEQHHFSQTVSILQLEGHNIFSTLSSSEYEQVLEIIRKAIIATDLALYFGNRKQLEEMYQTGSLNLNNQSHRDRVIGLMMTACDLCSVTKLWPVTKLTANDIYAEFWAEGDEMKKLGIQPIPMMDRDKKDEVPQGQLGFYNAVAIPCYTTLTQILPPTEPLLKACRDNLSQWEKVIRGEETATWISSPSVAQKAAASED

| IC50 [nM] | SMILES |
| --- | --- |
| 90 | Cc1ccc(Nc2cncnc2)c(C(=O)Nc2ccn(-c3ccccc3)n2)n1 [Example 1, 6-Methyl-3-(pyrimidin-5-ylamino)-pyridine-2-carboxylic acid (1-phenyl-1H-pyrazol-3-yl)-amide] |
| 368 | Cc1ccc(Nc2cncnc2)c(C(=O)Nc2ccn(-c3ccccn3)n2)n1 [Example 4, 6-Methyl-3-(pyrimidin-5-ylamino)-pyridine-2-carboxylic acid (1-pyridin-2-yl-1H-pyrazol-3-yl)-amide] |
| 48 | Cc1ccc(Nc2cncnc2)c(C(=O)Nc2ccn(-c3ccncc3)n2)n1 [Example 5, 6-Methyl-3-(pyrimidin-5-ylamino)-pyridine-2-carboxylic acid (1-pyridin-4-yl-1H-pyrazol-3-yl)-amide] |
| 23 | O=C(Nc1ccn(-c2ccc(F)cc2)n1)c1nc(C2CC2)ccc1Nc1cncnc1 [Example 6, 6-Cyclopropyl-3-(pyrimidin-5-ylamino)-pyridine-2-carboxylic acid [1-(4-fluoro-phenyl)-1H-pyrazol-3-yl]-amide] |
| 10 | O=C(Nc1ccn(-c2ccncc2)n1)c1nc(C2CC2)ccc1Nc1cncnc1 [Example 7, 6-Cyclopropyl-3-(pyrimidin-5-ylamino)-pyridine-2-carboxylic acid (1-pyridin-4-yl-1H-pyrazol-3-yl)-amide] |
| 5 | Cn1nc(-c2ccccn2)cc1NC(=O)c1nc(C2CC2)ccc1Nc1cncnc1 [Example 8, 6-Cyclopropyl-3-(pyrimidin-5-ylamino)-pyridine-2-carboxylic acid (2-methyl-5-pyridin-2-yl-2H-pyrazol-3-yl)-amide] |
| 122 | O=C(Nc1cc(-c2ccccc2)nn1CCO)c1nc(C2CC2)ccc1Nc1cncnc1 [Example 9, 6-Cyclopropyl-3-(pyrimidin-5-ylamino)-pyridine-2-carboxylic acid [2-(2-hydroxy-ethyl)-5-phenyl-2H-pyrazol-3-yl]-amide] |
| 2 | O=C(Nc1cc(-c2ccccn2)nn1CCO)c1nc(C2CC2)ccc1Nc1cncnc1 [Example 10, 6-Cyclopropyl-3-(pyrimidin-5-ylamino)-pyridine-2-carboxylic acid [2-(2-hydroxy-ethyl)-5-pyridin-2-yl-2H-pyrazol-3-yl]-amide] |
| 5 | COCc1ccc(Nc2cncnc2)c(C(=O)Nc2cc(-c3ccccn3)nn2CCO)n1 [Example 11, 6-Methoxymethyl-3-(pyrimidin-5-ylamino)-pyridine-2-carboxylic acid [2-(2-hydroxy-ethyl)-5-pyridin-2-yl-2H-pyrazol-3-yl]-amide] |
| 1 | CN(C)CCn1nc(-c2ccccn2)cc1NC(=O)c1nc(C2CC2)ccc1Nc1cncnc1 [Example 12, 6-Cyclopropyl-3-(pyrimidin-5-ylamino)-pyridine-2-carboxylic acid [2-(2-dimethylamino-ethyl)-5-pyridin-2-yl-2H-pyrazol-3-yl]-amide] |
| 256 | COCc1ncc(Nc2cncnc2)c(C(=O)Nc2cc(-c3ccccn3)nn2C)n1 [Example 13, 2-Methoxymethyl-5-(pyrimidin-5-ylamino)-pyrimidine-4-carboxylic acid (2-methyl-5-pyridin-2-yl-2H-pyrazol-3-yl)-amide] |
| 1 | O=C(Nc1cc(-c2ccccn2)nn1C1CCCCC1)c1nc(C2CC2)ccc1Nc1cncnc1 [Example 14, 6-Cyclopropyl-3-(pyrimidin-5-ylamino)-pyridine-2-carboxylic acid (2-cyclohexyl-5-pyridin-2-yl-2H-pyrazol-3-yl)-amide] |
| 4 | CCOC(=O)Cn1nc(-c2ccccn2)cc1NC(=O)c1nc(C2CC2)ccc1Nc1cncnc1 [Example 15, (5-{[6-Cyclopropyl-3-(pyrimidin-5-ylamino)-pyridine-2-carbonyl]-amino}-3-pyridin-2-yl-pyrazol-1-yl)-acetic acid ethyl ester] |
| 2 | O=C(Nc1cc(-c2ccccn2)nn1CCN1CCOCC1)c1nc(C2CC2)ccc1Nc1cncnc1 [Example 16, 6-Cyclopropyl-3-(pyrimidin-5-ylamino)-pyridine-2-carboxylic acid [2-(2-morpholin-4-yl-ethyl)-5-pyridin-2-yl-2H-pyrazol-3-yl]-amide] |
| 5 | O=C(Nc1cc(-c2ccccn2)nn1CCc1ccccc1)c1nc(C2CC2)ccc1Nc1cncnc1 [Example 17, 6-Cyclopropyl-3-(pyrimidin-5-ylamino)-pyridine-2-carboxylic acid (2-phenethyl-5-pyridin-2-yl-2H-pyrazol-3-yl)-amide] |
| 13 | CC(C)(C)n1nc(-c2ccccn2)cc1NC(=O)c1nc(C2CC2)ccc1Nc1cncnc1 [Example 18, 6-Cyclopropyl-3-(pyrimidin-5-ylamino)-pyridine-2-carboxylic acid (2-tert-butyl-5-pyridin-2-yl-2H-pyrazol-3-yl)-amide] |
| 2 | CCc1ccc(Nc2cncnc2)c(C(=O)Nc2cc(-c3ccccn3)nn2C)n1 [Example 19, 6-Ethyl-3-(pyrimidin-5-ylamino)-pyridine-2-carboxylic acid (2-methyl-5-pyridin-2-yl-2H-pyrazol-3-yl)-amide] |
| 1 | O=C(Nc1cc(-c2ccccn2)nn1C1CCOCC1)c1nc(C2CC2)ccc1Nc1cncnc1 [Example 20, 6-Cyclopropyl-3-(pyrimidin-5-ylamino)-pyridine-2-carboxylic acid [5-pyridin-2-yl-2-(tetrahydro-pyran-4-yl)-2H-pyrazol-3-yl]-amide] |
| 4 | Cn1nc(-c2ccccn2)cc1NC(=O)c1nc(C2CC2)cnc1Nc1cncnc1 [Example 21, 6-Cyclopropyl-3-(pyrimidin-5-ylamino)-pyrazine-2-carboxylic acid (2-methyl-5-pyridin-2-yl-2H-pyrazol-3-yl)-amide] |
| 2 | O=C(Nc1cc(-c2ccccn2)nn1CC(F)(F)F)c1nc(C2CC2)ccc1Nc1cncnc1 [Example 22, 6-Cyclopropyl-3-(pyrimidin-5-ylamino)-pyridine-2-carboxylic acid [5-pyridin-2-yl-2-(2,2,2-trifluoro-ethyl)-2H-pyrazol-3-yl]-amide] |
| 2 | CCCn1nc(-c2ccccn2)cc1NC(=O)c1nc(C2CC2)ccc1Nc1cncnc1 [Example 23, 6-Cyclopropyl-3-(pyrimidin-5-ylamino)-pyridine-2-carboxylic acid (2-propyl-5-pyridin-2-yl-2H-pyrazol-3-yl)-amide] |
| 1 | O=C(Nc1cc(-c2cccc(Cl)n2)nn1CCO)c1nc(C2CC2)ccc1Nc1cncnc1 [Example 24, 6-Cyclopropyl-3-(pyrimidin-5-ylamino)-pyridine-2-carboxylic acid [5-(6-chloro-pyridin-2-yl)-2-(2-hydroxy-ethyl)-2H-pyrazol-3-yl]-amide] |
| < 1 | O=C(Nc1cc(-c2ccc3ccccc3n2)nn1CCO)c1nc(C2CC2)ccc1Nc1cncnc1 [Example 25, 6-Cyclopropyl-3-(pyrimidin-5-ylamino)-pyridine-2-carboxylic acid [2-(2-hydroxy-ethyl)-5-quinolin-2-yl-2H-pyrazol-3-yl]-amide] |
| 2 | O=C(Nc1cc(-c2ccc(Cl)cn2)nn1CCO)c1nc(C2CC2)ccc1Nc1cncnc1 [Example 26, 6-Cyclopropyl-3-(pyrimidin-5-ylamino)-pyridine-2-carboxylic acid [5-(5-chloro-pyridin-2-yl)-2-(2-hydroxy-ethyl)-2H-pyrazol-3-yl]-amide] |
| 3 | CC(C)n1nc(-c2ccccn2)cc1NC(=O)c1nc(C2CC2)ccc1Nc1cncnc1 [Example 27, 6-Cyclopropyl-3-(pyrimidin-5-ylamino)-pyridine-2-carboxylic acid (2-isopropyl-5-pyridin-2-yl-2H-pyrazol-3-yl)-amide] |
| 1 | CC(C)Cn1nc(-c2ccccn2)cc1NC(=O)c1nc(C2CC2)ccc1Nc1cncnc1 [Example 28, 6-Cyclopropyl-3-(pyrimidin-5-ylamino)-pyridine-2-carboxylic acid (2-isobutyl-5-pyridin-2-yl-2H-pyrazol-3-yl)-amide] |
| 2 | O=C(Nc1cc(-c2ccccn2)nn1Cc1ccccc1)c1nc(C2CC2)ccc1Nc1cncnc1 [Example 29, 6-Cyclopropyl-3-(pyrimidin-5-ylamino)-pyridine-2-carboxylic acid (2-benzyl-5-pyridin-2-yl-2H-pyrazol-3-yl)-amide] |
| 5 | CCn1nc(-c2ccccn2)cc1NC(=O)c1nc(C2CC2)ccc1Nc1cncnc1 [Example 30, 6-Cyclopropyl-3-(pyrimidin-5-ylamino)-pyridine-2-carboxylic acid (2-ethyl-5-pyridin-2-yl-2H-pyrazol-3-yl)-amide] |
| 1 | O=C(Nc1cc(-c2ccccn2)nn1CC1CCCC1)c1nc(C2CC2)ccc1Nc1cncnc1 [Example 31, 6-Cyclopropyl-3-(pyrimidin-5-ylamino)-pyridine-2-carboxylic acid (2-cyclopentylmethyl-5-pyridin-2-yl-2H-pyrazol-3-yl)-amide] |
| 1 | O=C(Nc1cc(-c2ccccn2)nn1CC1CCCCC1)c1nc(C2CC2)ccc1Nc1cncnc1 [Example 32, 6-Cyclopropyl-3-(pyrimidin-5-ylamino)-pyridine-2-carboxylic acid (2-cyclohexylmethyl-5-pyridin-2-yl-2H-pyrazol-3-yl)-amide] |
